Data: patent US10239871B2, “Compounds and methods for regulating integrins” (ADHAERE PHARMACEUTICALS, INC., priority 2012, dated 2019)

How the values were obtained:
[1] = test system: RAW 264.7 macrophage cells; experiment: Wound healing assay (macrophage migration); assay type: cell-based, murine; conditions: LPS 100 ng/mL or PMA 100 nM vs unstimulated (DMSO), 48 hours
Method: Murine RAW 264.7 macrophage cells were grown in DMEM 10% FBS medium in T75 flasks to 70% confluence. The cells were detached by trypsin treatment for 10 minutes at 37° C. and evenly reseeded in 24 well plates and allowed to attain >70% confluency. A scratch was introduced horizontally across the well using 200 µL tip applying even force throughout the etching and holding the tip at approximately an 80 degree angle. The wells were subsequently washed and fresh medium containing various treatment groups was introduced. The wound was imaged using 10× objective. The cells were allowed to grow for 48 hours and the wound was reimaged at the same field after 48 hours. The average extent of wound closure was evaluated by measuring the width of the wound. The area healed was analyzed using ImageJ software and is expressed as percentage healing after 48 hours.
For FIG. 4B, RAW 264.7 cells were plated in 24-well tissue culture plates (2×10^6 cells/well) and allowed to adhere in complete media for 12 hours. […] Images of the cells in culture were obtained immediately prior to (0 hours) and after the completion of the experiment (48 hours) using an inverted phase contrast microscope attached to a video camera.
Representative data shown here are from a triplicate well experiment from one of at least two to three independent experiments. **p<0.001, ***p<0.0001.

Human macrophages = experiment: TNF-α release from human macrophages; assay type: cell-based; conditions: n=14
Cl66 cells = experiment: Orthotopic Cl66 mammary adenocarcinoma tumor growth, with or without Taxol; assay type: in vivo; conditions: BALB/c mice, vs vehicle
Method: The syngeneic murine mammary adenocarcinoma cell line Cl66 (moderately metastatic and is related to the highly metastatic 4T1 cell line) was orthotopically introduced in Balb/c animals, by injecting ˜5×10^5 Cl66 cells under the left mammary fat pad of WT BALB/c mice (approx. 8-10 weeks old). The tumor size was measured using calipers every other day until the end of the experiment (approx. 5 weeks). 7-days post implantation, the tumors in all animals became palpable, with an average size of ˜100 mm3. At that time, animals in each group were treated as described. LA1 was administered daily for the first two weeks and then every other day until the end of the experiment. Animals in Group 1 received Saline injections, as control. […] It can also enhance the efficacy of traditional chemotherapy in various cancers, including breast cancer, to produce a synergistic response to the treatment. It can also reduce the incidence and the size of metastases.

patients = conditions: cited from earlier work
[2] = test system: MAPK signaling (pERK, pJNK) in K562 WT cells; experiment: Western blotting of pERK and pJNK in K562 WT cells; assay type: cell-based, human; conditions: CD11b/CD18 ligation with fibrinogen, all conditions
Method: K562 WT cells were incubated with LA1, LA2, LA15 (15 μM), or fibrinogen (200 μg) in serum-free medium for 1 hour at 37° C. Cell lysates were resolved on 4-12% NuPAGE Bis-Tris SDS-PAGE gels using MES running buffer and transferred to a polyvinylidene difluoride (PVDF) membrane (ThermoScientific) using established protocols. Membranes were incubated with a 1:1,000 dilution of the anti-phospho-protein antibodies (anti phospho-p44/42 MAPK (pERK1/2) antibody (Thr202/Tyr204, Cell Signaling) or anti-phospho-SAPK/JNK (pJNK) antibody (Thr183/Tyr185, Cell Signaling #81E11)), or with an antibody against either total ERK1/2 (p44/42 MARK (Erk1/2), Cell Signaling #137F5) or total JNK (SAPK/JNK, Cell Signaling #56G8) and developed according to the manufacturer's instructions (ThermoScientific). Proteins were quantified by densitometry using ImageJ software. […]
Second, an effect of integrin ligation, macro clustering and redistribution in the plasma membrane is the triggering of outside-in intracellular signaling in cells via various MAPKs. […] In FIGS. 6A-6B, immunoblot results from two independent experiments were quantified using ImageJ software and ratio of phosphorylated protein to total protein was determined. Histograms showing this quantitation for each set are also shown. […] In FIGS. 6C-6D, immunoblot results from two independent experiments were quantified and are also shown, as in 6A and 6B.

CD11b/CD18 = CD11b/CD18 (Homo sapiens, UniProt P11215); experiment: Immunofluorescence microscopy of CD11b/CD18 clustering on K562 WT cells; assay type: cell-based; design: K562 cells stably transfected with plasmid encoding wild-type integrin CD11b/CD18; expressed in transfected cells; conditions: presence of fibrinogen 50 μg/mL
Method: To visualize changes upon ligand binding, fibrinogen (50 μg/mL) was also added to the cell suspension media in a second set of incubations. The cells were fixed in suspension and incubated with mAb 184, which is specific for CD11b/CD18, followed by Alexa Fluor 488-conjugated goat antibody against mouse Ig (Sigma). Fluorescence images were recorded with a Leica DMI16000 deconvolution microscope using an HCX APO 40×/0.75 DRY objective with a DCF360FX camera and with Leica LAS-AF software. A 3-dimensional representation of CD11b/CD18 fluorescence intensity and the analysis of the number of CD11b/CD18 clusters per cell was performed using ImageJ software as described. Clustering determination was carried out by counting individual fluorescent peaks that were projected from the basal to the apical side of the cell and were at least 50% above the base line levels. The images presented are representative of at least 20 cells analyzed for each condition from at least three independent experiments.
Therefore, to investigate, a combination of confocal microscopy (to study clustering) and western blotting assays (to study intracellular signaling) using K562 WT cells were used. First, CD11b/CD18 cell-surface distribution and macro clustering was studied under various conditions using confocal microscopy. K562 WT cells in suspension were incubated with various agonists, fixed with paraformaldehyde and the surface expressed CD11b/CD18 was fluorescently stained with anti-CD11b/CD18 mAb 1B4. […] The fluorescence images shown are representative of three independent experiments. […] Also shown below each image is a 3D representation of CD11b fluorescence intensity for selected cells, analyzed in ImageJ In FIG. 5B, data shown are mean±SEM from >40 cells per condition and from >3 independent experiments for each condition. ***p<0.0001, ns=not significant.

CCCCCCCCCCCCCC(=O)O[C@@H]1[C@@H](C)[C@@]2(O)[C@@H](C=C(CO)C[C@]3(O)C(=O)C(C)=C[C@@H]23)[C@@H]2C(C)(C)[C@]12OC(C)=O [PMA, phorbol-12-myristate-13-acetate, reference compound]
migration of macrophages into the wound area upon stimulation [1]: significantly induced the migration of macrophages

CCOCc1nc2c(N)nc3ccccc3c2n1CC(C)(C)O [R848, reference compound]
TNF-α release, stimulus alone vs macrophages alone (Human macrophages): significantly stimulated TNF-α release

CC(=O)O[C@H]1C(=O)[C@@]2(C)[C@H]([C@H](OC(=O)c3ccccc3)[C@]3(O)C[C@H](OC(=O)[C@H](O)[C@@H](NC(=O)c4ccccc4)c4ccccc4)C(C)=C1C3(C)C)[C@]1(OC(C)=O)CO[C@@H]1C[C@@H]2O [Taxol, reference compound]
rate of tumor growth, single agent (Cl66 cells): significant reduction in the rate of tumor growth

CC(=O)O[C@@]12CO[C@@H]1C[C@H](O)[C@@]1(C)C(=O)[C@H](O)C3=C(C)[C@@H](OC(=O)[C@H](O)[C@@H](NC(=O)OC(C)(C)C)c4ccccc4)C[C@@](O)([C@@H](OC(=O)c4ccccc4)[C@H]21)C3(C)C [docetaxel]
incidence rate of bradycardia (patients): 1.7%

fibrinogen [reference compound]
phosphorylated ERK (pERK) and phosphorylated JNK (pJNK) [2]: high levels of both pERK and pJNK | CD11b/CD18 macro clustering on cell surface (CD11b/CD18): significant CD11b/CD18 macro clustering
